Laboratory results reported in patent US20080292619A1, “Pharmaceutical Composition Containing Meltrin Antagonist” (MOCHIDA PHARMACEUTICAL CO., LTD., priority 2004, published 2008).
In the oligonucleotide strings, read from the 5' end, every base follows the letter of its sugar. An asterisk marks phosphorothioate; unmarked linkages are phosphodiester. Other units and linkages are bracketed, terminal groups are in braces. A string of capitals states the bases alone. d = 2'-deoxy (DNA)

System: human meltrin α RNA
Test: Suppression of human meltrin α expression by antisense compound in RD cell (real time PCR)
Assay type: cell-based
Conditions: RD cell, corrected by GAPDH
In short: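 RD cells transfected with heat-denatured antisense oligodeoxynucleotide plus Lipofectin in Opti-MEM for 4 h at 37° C, then cultured 18 h. Meltrin α RNA quantified by TaqMan RT-PCR against plasmid standard curve, GAPDH-corrected; suppression vs untreated cells, rated +/++/+++ for ≥30/50/70%.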

Substance: H144: cagaggcttctgaggggggt (CAGAGGCTTCTGAGGGGGGT; antisense; DNA, all phosphorothioate, methylation of C not given here)
- suppression rate of expression, 50 nM: + (“+” when the suppression rate was at least 30%)
- suppression rate of expression, 200 nM: ++ (“++” when the suppression rate was at least 50%)

Substance: H145 + 1: tctggccagaggatctgcag (TCTGGCCAGAGGATCTGCAG; antisense; DNA, all phosphorothioate, methylation of C not given here)
- suppression rate of expression, 50 nM: +++ (“+++” when the suppression rate was at least 70%)

Substance: H145 + 2: ttctggccagaggatctgca (dT*dT*dC*dT*dG*dG*dC*dC*dA*dG*dA*dG*dG*dA*dT*dC*dT*dG*dC*dA; antisense)
- suppression rate of expression, 50 nM: +++ (“+++” when the suppression rate was at least 70%)

Substance: H145 + 3: gttctggccagaggatctgc (dG*dT*dT*dC*dT*dG*dG*dC*dC*dA*dG*dA*dG*dG*dA*dT*dC*dT*dG*dC; antisense)
- suppression rate of expression, 50 nM: ++ (“++” when the suppression rate was at least 50%)

Substance: H145 + 4: tgttctggccagaggatctg (dT*dG*dT*dT*dC*dT*dG*dG*dC*dC*dA*dG*dA*dG*dG*dA*dT*dC*dT*dG; antisense)
- suppression rate of expression, 50 nM: ++ (“++” when the suppression rate was at least 50%)

Substance: H145 + 5: ttgttctggccagaggatct (dT*dT*dG*dT*dT*dC*dT*dG*dG*dC*dC*dA*dG*dA*dG*dG*dA*dT*dC*dT; antisense)
- suppression rate of expression, 50 nM: +++ (“+++” when the suppression rate was at least 70%)

Substance: H145 + 10: ccgagttgttctggccagag (dC*dC*dG*dA*dG*dT*dT*dG*dT*dT*dC*dT*dG*dG*dC*dC*dA*dG*dA*dG; antisense)
- suppression rate of expression, 50 nM: ++ (“++” when the suppression rate was at least 50%)

Substance: H145: ctggccagaggatctgcagg (CTGGCCAGAGGATCTGCAGG; antisense; DNA, all phosphorothioate, methylation of C not given here)
- suppression rate of expression, 50 nM: +++ (“+++” when the suppression rate was at least 70%)
- suppression rate of expression, 200 nM: +++ (“+++” when the suppression rate was at least 70%)

Substance: H146 + 10: ctggccaaggcatgagtgag (dC*dT*dG*dG*dC*dC*dA*dA*dG*dG*dC*dA*dT*dG*dA*dG*dT*dG*dA*dG; antisense)
- suppression rate of expression, 50 nM: + (“+” when the suppression rate was at least 30%)

Substance: H146: catgagtgagccgagttgtt (dC*dA*dT*dG*dA*dG*dT*dG*dA*dG*dC*dC*dG*dA*dG*dT*dT*dG*dT*dT; antisense)
- suppression rate of expression, 50 nM: + (“+” when the suppression rate was at least 30%)
- suppression rate of expression, 200 nM: ++ (“++” when the suppression rate was at least 50%)

Substance: H147: tcctggggtcctggccaagg (dT*dC*dC*dT*dG*dG*dG*dG*dT*dC*dC*dT*dG*dG*dC*dC*dA*dA*dG*dG; antisense)
- suppression rate of expression, 50 nM: ++ (“++” when the suppression rate was at least 50%)
- suppression rate of expression, 200 nM: +++ (“+++” when the suppression rate was at least 70%)

Substance: H148 + 5: ccaggcggagcccagtctcc (dC*dC*dA*dG*dG*dC*dG*dG*dA*dG*dC*dC*dC*dA*dG*dT*dC*dT*dC*dC; antisense)
- suppression rate of expression, 50 nM: + (“+” when the suppression rate was at least 30%)

Substance: H148 + 10: gggtgccaggcggagcccag (dG*dG*dG*dT*dG*dC*dC*dA*dG*dG*dC*dG*dG*dA*dG*dC*dC*dC*dA*dG; antisense)
- suppression rate of expression, 50 nM: ++ (“++” when the suppression rate was at least 50%)

Substance: H148: cggagcccagtctcccattg (dC*dG*dG*dA*dG*dC*dC*dC*dA*dG*dT*dC*dT*dC*dC*dC*dA*dT*dT*dG; antisense)
- suppression rate of expression, 50 nM: + (“+” when the suppression rate was at least 30%)
- suppression rate of expression, 200 nM: ++ (“++” when the suppression rate was at least 50%)

Substance: H149 + 10: tattgtggagcaggtctgag (dT*dA*dT*dT*dG*dT*dG*dG*dA*dG*dC*dA*dG*dG*dT*dC*dT*dG*dA*dG; antisense)
- suppression rate of expression, 50 nM: + (“+” when the suppression rate was at least 30%)

Substance: H149: caggtctgaggggtgccagg (dC*dA*dG*dG*dT*dC*dT*dG*dA*dG*dG*dG*dG*dT*dG*dC*dC*dA*dG*dG; antisense)
- suppression rate of expression, 50 nM: + (“+” when the suppression rate was at least 30%)
- suppression rate of expression, 200 nM: +++ (“+++” when the suppression rate was at least 70%)

Substance: H150 + 5: ggcacttggtgtggatattg (dG*dG*dC*dA*dC*dT*dT*dG*dG*dT*dG*dT*dG*dG*dA*dT*dA*dT*dT*dG; antisense)
- suppression rate of expression, 50 nM: + (“+” when the suppression rate was at least 30%)

Substance: H150 + 10: atctgggcacttggtgtgga (dA*dT*dC*dT*dG*dG*dG*dC*dA*dC*dT*dT*dG*dG*dT*dG*dT*dG*dG*dA; antisense)
- suppression rate of expression, 50 nM: ++ (“++” when the suppression rate was at least 50%)

Substance: H150 + 15: ggtggatctgggcacttggt (dG*dG*dT*dG*dG*dA*dT*dC*dT*dG*dG*dG*dC*dA*dC*dT*dT*dG*dG*dT; antisense)
- suppression rate of expression, 50 nM: + (“+” when the suppression rate was at least 30%)

Substance: H150: ttggtgtggatattgtggag (dT*dT*dG*dG*dT*dG*dT*dG*dG*dA*dT*dA*dT*dT*dG*dT*dG*dG*dA*dG; antisense)
- suppression rate of expression, 50 nM: + (“+” when the suppression rate was at least 30%)
- suppression rate of expression, 200 nM: +++ (“+++” when the suppression rate was at least 70%)

Substance: H152: cttctcacttaatataggcg (dC*dT*dT*dC*dT*dC*dA*dC*dT*dT*dA*dA*dT*dA*dT*dA*dG*dG*dC*dG; antisense)
- suppression rate of expression, 200 nM: + (“+” when the suppression rate was at least 30%)

Substance: H153: ctgttgaaaaaaggtgtcgg (dC*dT*dG*dT*dT*dG*dA*dA*dA*dA*dA*dA*dG*dG*dT*dG*dT*dC*dG*dG; antisense)
- suppression rate of expression, 200 nM: ++ (“++” when the suppression rate was at least 50%)

Substance: H155: tccaactggagctgaaagat (dT*dC*dC*dA*dA*dC*dT*dG*dG*dA*dG*dC*dT*dG*dA*dA*dA*dG*dA*dT; antisense)
- suppression rate of expression, 200 nM: ++ (“++” when the suppression rate was at least 50%)

Substance: H156: taaaagttggtacaaaaaac (dT*dA*dA*dA*dA*dG*dT*dT*dG*dG*dT*dA*dC*dA*dA*dA*dA*dA*dA*dC; antisense)
- suppression rate of expression, 200 nM: + (“+” when the suppression rate was at least 30%)

Substance: H159: actgacggcagtagctcaaa (dA*dC*dT*dG*dA*dC*dG*dG*dC*dA*dG*dT*dA*dG*dC*dT*dC*dA*dA*dA; antisense)
- suppression rate of expression, 200 nM: ++ (“++” when the suppression rate was at least 50%)

Substance: H160: gcaccatagcacagcacagc (dG*dC*dA*dC*dC*dA*dT*dA*dG*dC*dA*dC*dA*dG*dC*dA*dC*dA*dG*dC; antisense)
- suppression rate of expression, 200 nM: ++ (“++” when the suppression rate was at least 50%)

Substance: H161: tacctgtgcaagtagacaga (dT*dA*dC*dC*dT*dG*dT*dG*dC*dA*dA*dG*dT*dA*dG*dA*dC*dA*dG*dA; antisense)
- suppression rate of expression, 200 nM: ++ (“++” when the suppression rate was at least 50%)

Substance: H163: cactgtaatcaacattctgc (dC*dA*dC*dT*dG*dT*dA*dA*dT*dC*dA*dA*dC*dA*dT*dT*dC*dT*dG*dC; antisense)
- suppression rate of expression, 200 nM: + (“+” when the suppression rate was at least 30%)

Substance: H164: atgcctactacagcgcactg (dA*dT*dG*dC*dC*dT*dA*dC*dT*dA*dC*dA*dG*dC*dG*dC*dA*dC*dT*dG; antisense)
- suppression rate of expression, 200 nM: ++ (“++” when the suppression rate was at least 50%)

Substance: H165: aaaactcagtgatggtaaaa (dA*dA*dA*dA*dC*dT*dC*dA*dG*dT*dG*dA*dT*dG*dG*dT*dA*dA*dA*dA; antisense)
- suppression rate of expression, 200 nM: + (“+” when the suppression rate was at least 30%)

Substance: H166: aacaagccttcctgccatgg (dA*dA*dC*dA*dA*dG*dC*dC*dT*dT*dC*dC*dT*dG*dC*dC*dA*dT*dG*dG; antisense)
- suppression rate of expression, 200 nM: ++ (“++” when the suppression rate was at least 50%)

Substance: H168: caagcaggatatttcaagtt (dC*dA*dA*dG*dC*dA*dG*dG*dA*dT*dA*dT*dT*dT*dC*dA*dA*dG*dT*dT; antisense)
- suppression rate of expression, 200 nM: + (“+” when the suppression rate was at least 30%)

Substance: H169: catcctgtccagaatcccat (dC*dA*dT*dC*dC*dT*dG*dT*dC*dC*dA*dG*dA*dA*dT*dC*dC*dC*dA*dT; antisense)
- suppression rate of expression, 200 nM: ++ (“++” when the suppression rate was at least 50%)

Substance: H170: ccttgatcagaaagcaaaca (dC*dC*dT*dT*dG*dA*dT*dC*dA*dG*dA*dA*dA*dG*dC*dA*dA*dA*dC*dA; antisense)
- suppression rate of expression, 200 nM: + (“+” when the suppression rate was at least 30%)

Substance: H171: gggactgctttccaataagg (dG*dG*dG*dA*dC*dT*dG*dC*dT*dT*dT*dC*dC*dA*dA*dT*dA*dA*dG*dG; antisense)
- suppression rate of expression, 200 nM: ++ (“++” when the suppression rate was at least 50%)

Substance: H172: gcacagctgggggtagttgg (dG*dC*dA*dC*dA*dG*dC*dT*dG*dG*dG*dG*dG*dT*dA*dG*dT*dT*dG*dG; antisense)
- suppression rate of expression, 50 nM: + (“+” when the suppression rate was at least 30%)
- suppression rate of expression, 200 nM: +++ (“+++” when the suppression rate was at least 70%)

Substance: H173: agctgcatctggtaccataa (dA*dG*dC*dT*dG*dC*dA*dT*dC*dT*dG*dG*dT*dA*dC*dC*dA*dT*dA*dA; antisense)
- suppression rate of expression, 50 nM: ++ (“++” when the suppression rate was at least 50%)
- suppression rate of expression, 200 nM: +++ (“+++” when the suppression rate was at least 70%)

Substance: H176: ggctctggcctgagatgggg (dG*dG*dC*dT*dC*dT*dG*dG*dC*dC*dT*dG*dA*dG*dA*dT*dG*dG*dG*dG; antisense)
- suppression rate of expression, 200 nM: + (“+” when the suppression rate was at least 30%)

Substance: H177: gcctggacctgaagcccctt (dG*dC*dC*dT*dG*dG*dA*dC*dC*dT*dG*dA*dA*dG*dC*dC*dC*dC*dT*dT; antisense)
- suppression rate of expression, 200 nM: +++ (“+++” when the suppression rate was at least 70%)
